By melting point is commonly meant the temperature of the solid-liquid transition.

Molecules are shown by their SMILES.

The compound `Ic1ccc(C2CCCCO2)cc1-c1cc(C2CCCCO2)ccc1I` (stereo not given) came in with a melting point of 112 to 113 °C. `CC(C)Nc1c(-c2c(F)cc(F)cc2F)c(F)nc2nccnc12` registered a melting point of 127 to 128 °C. As for `N#Cc1cc(Cc2ccccc2Cl)ccc1N`, the figure is 79 to 80 °C. On to `S=C1CCNc2ccccc2N1`, for which the melting point was 154 to 157 °C. On to `Cc1c(CC(=O)O)c2cc(OCc3ccc4ccccc4c3)ccc2n1Cc1ccc(Cl)cc1`, for which the melting point fell in the range of 168 to 170 °C. On to `COc1ccc(N2CCN(c3ccncc3)CC2)cc1`, for which the melting point fell in the range of 165 to 167 °C. Consider `COc1ccc(C=CC(=O)c2cccc(OC)c2OC)cc1Oc1ccccc1`, for which the melting point was 63.3 to 64 °C. As for `Cc1cccc2c1nc(COc1ccc(Cl)cc1)n2CCC(C)CNCc1ccccc1` (racemic), the melting point was in the range of 84.5 to 87 °C.

`O=C1N=C(N2CCCC2)SC1Cc1cccc(-c2ccc(O)c(C34CC5CC(CC(C5)C3)C4)c2)c1` (stereo not given) displayed a melting point of 153 to 154 °C.

With `CC(C)(C)OC(=O)CN1CCN[C@@H](Cc2ccc(OC(C)(C)C)cc2)C1=O`, the melting point fell in the range of 124 to 126 °C. In turn, `Fc1cccc(F)c1C1=NC(c2ccccc2Br)CCS1` (stereo not given) displayed a melting point of 136 to 138 °C. As for `COc1ccc(-n2cc(C(=O)N(CC(=O)O)c3ccc(OCC(C)(C)C)c(C#N)c3)c(C)n2)cc1`, the figure is 98 to 101 °C; as for `CCCCc1nc2c(N)nc3ccccc3c2n1CCCNC(=O)c1cc2ccccc2cn1`, 204 to 205 °C. `CC(=O)OCC(=O)C1(O)C(C)CC2C3CCC4=CC(=O)C=CC4(C)C3=CCC21C` (stereo not given) showed a melting point of 202 to 205 °C. `NC(=O)NCCNc1ccc([N+](=O)[O-])cc1` had a melting point of 187 °C. `Nc1nc2ccccc2c2c1ncn2CCCCNC(=O)CCc1ccccc1` showed a melting point of 148 to 150 °C.

On to `Cc1c(C)c2c(c(C)c1NC(=O)OCC(Cl)(Cl)Cl)C(c1ccc(C(C)C)cc1)CO2` (stereo not given), for which the melting point fell in the range of 137 to 140 °C. As for `COC(=O)c1ccccc1C1CC(c2ccccc2)=NO1` (stereo not given), the figure is 93.5 to 95 °C. `O=C(Nc1ccc(Cl)cn1)c1nc(-c2ccccc2)c2ccccc2c1O`: the melting point lay within 249 to 251 °C. Turning to `CCN(CC)C(=O)OC12Oc3cc(C(C)C)ccc3C1(O)C(=O)c1ccccc12` (stereo not given), the melting point was 127 to 130 °C. `COC=C(C(=O)OC)c1ccccc1O` displayed a melting point of 125 to 126 °C.

`CC(C)CC(C)Oc1c(-c2ccc(S(C)(=O)=O)cc2)cnn(-c2ccc(F)c(F)c2)c1=O` (stereo not given): the melting point was 132 to 133 °C. The compound `Cc1sc2ncc(C(O)CC(O)c3ccccc3)n2c1C` (stereo not given) came in with a melting point of 152 to 153 °C.

The compound `Cc1nc(N2CCN(Cc3ccc(OC(F)(F)F)cc3)C2=O)sc1C(=O)NCc1ccccc1` displayed a melting point of 197 to 198 °C. With `CCC1Sc2cc(Br)ccc2NC1=O` (stereo not given), the melting point was found to be 100 °C.

For `NC(=O)C1CCN(Cc2ccc(-c3cc4ncnc(Nc5ccc6[nH]ccc6c5)c4s3)cc2)CC1`, the melting point fell in the range of 198 to 205 °C. `Nc1ccc(-c2n[nH]c3c2sc2ccccc23)cc1` yielded a melting point of 113 to 115 °C. Consider `Cc1ccc(C)c(S(=O)(=O)Nc2onc(C)c2Br)c1`, for which the melting point fell in the range of 102 to 104 °C. As for `ON=C1CCSc2sccc21`, the melting point fell in the range of 123 to 124 °C.

In the case of `O=C(Cc1ccc(O)cc1)OCc1ccccc1`, the melting point fell in the range of 70 to 72 °C. `CCc1ccc(NC(=O)N[C@H]2C[C@H](C(=O)O)Nc3cc(Cl)cc(Cl)c32)cc1` (relative stereo) displayed a melting point of 195 to 197 °C.

On to `O=c1ccoc2cc(OCCCCCl)ccc12`, for which the melting point is 75 to 78 °C.

For `c1ccc2nc3[nH]ncc3cc2c1`, the melting point was in the range of 104 to 106 °C. As for `Cc1c(N)nc(=S)n(C)c1N`, the figure is 178 °C; as for `CC(=O)N1CCc2cc(N)cnc21`, 193 to 195 °C. In the case of `COc1cc2c(Nc3ccc(Br)cc3F)ncnc2cc1OCCCS(C)(=O)=O`, the melting point is more than 250 °C. On to `CC(=O)Nc1ccc(C(=O)OC2C=C(C)C(=O)CC(C)(C)C2O)cc1` (stereo not given), for which the melting point fell in the range of 134 to 135 °C. `C=CCOc1ccc(C(=O)Oc2ccc3ccc(OC(=O)C(=C)C)cc3c2)cc1` returned a melting point of 85 °C. Consider `CCCN1C(=O)N2CCCN=C2c2c1ncn2C`, for which the melting point lay within 107 to 109 °C. For the compound `N#Cc1ccc(C(=O)c2ccc(O)c(F)c2)cc1`, the melting point was in the range of 168 to 170 °C.

Compound `CCOC(=O)c1cnn(-c2ccc(Cl)cc2)c1` returned a melting point of 127 to 128 °C. `CCOC(Cc1ccc(OCc2nc(C(C)(C)C)oc2C)c2ccsc12)C(=O)O` (stereo not given) displayed a melting point of 179 to 180 °C. To `N#Cc1ccc(C2C(=O)N(Cc3ccccc3)Cc3cncn32)cc1` (stereo not given) belongs 163 to 165 °C; to `COc1ccc2c(c1)CC1=C2NN(C(=O)OC(C)(C)C)C1c1cccs1` (stereo not given), 163 to 165 °C; to `O=C1Cc2c([nH]c3cc(Cl)cc(Cl)c23)-c2ncccc2N1`, more than 330 °C.

With `CC(C)(N)CNC(CO)(CO)CO`, the melting point fell in the range of 73 to 75 °C. On to `CCOC(=O)CCC(Oc1cc(OCc2ccsc2)ccc1C(N)=S)c1ccccc1C` (racemic), for which the melting point lay in the range of 134 to 135 °C. For the compound `COC(=O)C1=C(C)NC(C)=C(C(=O)OC)C1c1cc([N+](=O)[O-])ccc1OCCCCNCC(O)COc1ccccc1` (stereo not given), the melting point is 131 to 133 °C. Take `O=C(O)C1=Cc2cc(SC(F)(F)F)ccc2OC1C(F)(F)F` (stereo not given): the melting point lay in the range of 139 to 143 °C. For `CSc1nnc2c(=O)c3ccc(Cl)cc3ccn12`, the melting point is 254 to 255 °C. As for `Cc1nc2c(Cl)cc(F)c(-n3c(=O)cc(C(F)(F)F)n(C)c3=O)c2s1`, the figure is 83 to 85 °C. In the case of `N#Cc1ccc(-c2cccc(-c3nc4cc(C#N)ccc4[nH]3)c2O)cc1`, the melting point lay within 318 to 320 °C. `COc1ccc2nc(-c3ccccc3)cc(C(=O)Nc3ccc(CCCCN(C)Cc4ccc(OC)c(OC)c4)cc3)c2c1` had a melting point of 148 °C. On to `CCCCCCCCCN(c1ccccc1)P(=O)(O)O`, for which the melting point lay in the range of 64 to 65 °C. `CC(=O)Nc1c(C)c(C)c2c(c1C)CC(C)(CN1CCC(c3ccccc3)CC1)O2` (stereo not given) yielded a melting point of 94 to 96 °C. `COc1ccc(OC)c(S(=O)(=O)n2c(COC(C)(C)C(=O)O)cc3cc(Cl)ccc32)c1` had a melting point of 156 to 158 °C.

`COC(=O)c1c(C(F)F)nc(C(F)(F)F)c(C(=O)OC)c1O` returned a melting point of 83 to 84.5 °C. `Cn1ccc2ccc(N3Cc4ccc(-c5cccnc5)cc4C3=O)cc21` registered a melting point of 187 to 188 °C.

With `COc1cnc(CSc2nc3cc(OC(F)(F)C(F)F)ccc3[nH]2)cc1OC`, the melting point lay within 125 to 127 °C. `CC(C)(C)c1ccc(-c2nc(Cl)c3ccccc3n2)cc1`: the melting point fell in the range of 75 to 76.5 °C.

`CCC1NC(=O)C2=C1c1ccc(Cl)cc1C(c1ccccc1Cl)=NC2` (stereo not given) came in with a melting point of 233 to 235 °C. `COC(=O)N=C(N(C)C)N(C)C(=O)NC1CCCCC1`: the melting point is 60 °C. In turn, `Cn1c2ccccc2c(=O)c2c(Br)cccc21` had a melting point of 219 to 221 °C. In turn, `COC(=O)/C=C/C=C(/c1ccc(OC)cc1)c1cccs1` gave a melting point of 97 to 99 °C.

`Nc1ncc2ncnc(Nc3ccc(F)c(Cl)c3)c2n1` displayed a melting point of 300 to 301 °C. `O=c1c2c(Cc3ccc(C(F)(F)F)cc3)n[nH]c2c2cccnc2n1-c1ccccc1` showed a melting point of 216 to 219 °C. As for `CCN(CC)C(=O)c1ccnc(Br)c1`, the figure is 200 to 203 °C.

As to `CCCCCCCCCCCCCCCCCCOc1cccc(C(=O)O)c1OCCCOc1ccc(O)cc1`, the melting point lay within 81 to 83 °C.

Turning to `O=C1NC(=O)C(Cc2ccc(OC3CCN(C(=O)OCc4ccccc4)CC3)cc2)S1` (stereo not given), the melting point lay in the range of 72 to 74 °C. Consider `CN(C)c1nc2c(ccc3ccccc32)s1`, for which the melting point was in the range of 136 to 138 °C. Compound `Cc1c2c(c(C=O)c(C(C)C)c1OCc1ccccc1)OC(C)(C)C2` displayed a melting point of 107 to 108 °C.

For the compound `Cc1cc2c(cc1C1=NNC(=O)CC1)OCC(=O)N2C`, the melting point was in the range of 211 to 213 °C.

As for `COc1cccc(-n2nc(Sc3ccc(Cl)cc3)c(C)c(C#N)c2=O)c1`, the melting point lay within 148 to 149 °C. Compound `Cc1cc(N)nc(Br)c1` returned a melting point of 99 °C. On to `O=C(O)CCc1cn(Cc2ccc(OCc3csc(-c4cccs4)n3)cc2)cc1-c1ccccc1`, for which the melting point lay within 106 to 107 °C. In turn, `CCc1nn(C2CCCC2)c2cc(C(=O)NCCC(=O)O)ccc12` gave a melting point of 151 to 153 °C. `CCc1ccc(-c2ccc(C(=O)N[C@@H]3CCc4cccc(N5CCN(C)CC5)c4C3)cc2)cc1` returned a melting point of 234 to 235 °C. Take `O=Cc1cc2c(cc1C=O)[C@H](CO)OC2=O`: the melting point lay within 144 to 145 °C.

For the compound `COc1ccc(Cl)cc1S(=O)(=O)Nc1onc(C)c1Br`, the melting point lay in the range of 180 to 184 °C. For `CN1CCN(C(=O)OC(C)(C)C)CC1C(N)=O` (stereo not given), the melting point was in the range of 137 to 138 °C.

For `Cc1cc2ncc(-c3cccc(C(F)(F)F)c3)c(N)n2n1`, the melting point was 176 °C.

The compound `Cc1c(Cl)nc(-c2ccc([N+](=O)[O-])o2)nc1Cl` showed a melting point of 174 to 175 °C. In turn, `COc1ccc2oc3ccc(C=O)cc3c(=O)c2c1` returned a melting point of 167 to 169 °C. Regarding `CCOC(=O)c1c(C)noc1C(=O)O`, the melting point was in the range of 54 to 58 °C. To `Cc1cc2c(cc1O)C(C)(C)CC1(CC(C)(C)c3cc(OCC(N)=O)c(C)cc3O1)O2` (stereo not given) belongs 220 to 221 °C; to `COc1ccc(OC(C)(C)C(=O)O)cc1OCCCc1cn(-c2ccc(C(F)(F)F)cn2)nc1C(C)C`, 106 to 107 °C; to `CC(C)(C)NCCCCOc1ccccc1C(=O)Nc1cccc2[nH]ccc12`, 147 °C. Take `O=C(Cn1c(-c2ccccc2)ncc(NC(=O)OCc2ccccc2)c1=O)NC(Cc1ccccc1)C(O)C(F)(F)F` (stereo not given): the melting point was 198 to 202 °C. In the case of `Cc1sc(C(=O)O)c2c1-c1nn(Cc3ccccc3)cc1CC2`, the melting point lay in the range of 231 to 232 °C. For `Nc1nc(-c2ccc(Cl)cc2)c(CCO)c2ncnn12`, the melting point lay in the range of 207 to 208 °C.
